pIC50: −log10 of the molar value.
Experiments:
[1] = molecular target: T1, Recombinant STAT3 protein (STAT3(G127-I722)) (Homo sapiens, UniProt P40763); test: STAT3 Fluorescence Polarization (FP) Assay; type: binding; conditions: STAT3(G127-I722) 25 nM, probe 5-FAM-GpYLPQTV-NH2 2 nM, 45-minute incubation
T1 construct: Recombinant STAT3 protein (STAT3(G127-I722))
Summary of the method: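 Fluorescence polarization after a 45-min room-temperature incubation measured compound displacement of a 2 nM fluorescein-labelled phosphotyrosine peptide (5-FAM-GpYLPQTV-NH2) from 25 nM recombinant STAT3(G127-I722). Buffer was 10 mM HEPES pH 7.4 with 1% DMSO final. IC50s were fitted by nonlinear regression of mP against log concentration.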

[2] = molecular target: T2, Recombinant STAT6 protein (STAT6(W123-T658)) (Homo sapiens, UniProt P42226); test: STAT6 Fluorescence Polarization (FP) Assay; type: binding; conditions: STAT6(W123-T658) 250 nM, probe 5-FAM-ApYKPFQDLI-NH2 2 nM, 45-minute incubation
T2 construct: Recombinant STAT6 protein (STAT6(W123-T658))
T2 sequence (P42226 123-658): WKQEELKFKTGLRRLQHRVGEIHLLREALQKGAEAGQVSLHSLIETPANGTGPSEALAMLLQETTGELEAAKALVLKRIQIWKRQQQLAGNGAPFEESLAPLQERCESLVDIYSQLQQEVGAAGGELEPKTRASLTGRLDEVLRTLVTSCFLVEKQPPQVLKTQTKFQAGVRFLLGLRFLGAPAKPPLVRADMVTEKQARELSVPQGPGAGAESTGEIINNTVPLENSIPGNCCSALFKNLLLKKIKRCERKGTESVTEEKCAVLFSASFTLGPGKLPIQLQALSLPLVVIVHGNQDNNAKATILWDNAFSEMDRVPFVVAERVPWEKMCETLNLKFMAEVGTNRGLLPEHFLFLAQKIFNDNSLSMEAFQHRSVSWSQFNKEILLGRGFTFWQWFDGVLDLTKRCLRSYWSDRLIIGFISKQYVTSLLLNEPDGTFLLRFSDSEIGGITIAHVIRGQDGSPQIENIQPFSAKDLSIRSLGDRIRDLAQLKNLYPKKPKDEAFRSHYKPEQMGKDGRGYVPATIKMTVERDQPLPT
Summary of the method: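 Displacement of a fluorescent phosphotyrosine peptide (5-FAM-ApYKPFQDLI-NH2, 2 nM) from STAT6(W123-T658) (250 nM), 1% DMSO, pH 7.4 HEPES buffer. After 45 min at room temperature, polarization (mP) was plotted versus log compound concentration and fitted by nonlinear regression to give IC50.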

T1 sequence (P40763 127-722): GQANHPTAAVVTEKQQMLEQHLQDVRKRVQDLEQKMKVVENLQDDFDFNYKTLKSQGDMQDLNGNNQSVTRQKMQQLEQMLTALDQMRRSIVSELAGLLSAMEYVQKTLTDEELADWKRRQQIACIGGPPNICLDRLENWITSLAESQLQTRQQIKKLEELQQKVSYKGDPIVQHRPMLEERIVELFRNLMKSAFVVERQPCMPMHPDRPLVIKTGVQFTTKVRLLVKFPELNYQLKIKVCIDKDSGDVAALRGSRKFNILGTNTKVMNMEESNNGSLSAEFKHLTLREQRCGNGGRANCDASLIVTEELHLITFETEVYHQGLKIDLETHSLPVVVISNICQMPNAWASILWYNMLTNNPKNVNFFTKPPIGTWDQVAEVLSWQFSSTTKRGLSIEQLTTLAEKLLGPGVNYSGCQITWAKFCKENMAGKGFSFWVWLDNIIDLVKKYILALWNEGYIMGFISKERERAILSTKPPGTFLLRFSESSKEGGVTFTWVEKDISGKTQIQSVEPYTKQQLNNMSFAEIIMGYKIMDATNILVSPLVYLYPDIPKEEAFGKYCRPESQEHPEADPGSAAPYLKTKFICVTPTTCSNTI

SMILES	pIC50 [1]	pIC50 [2]
CCN1CC[C@H](NC(=O)c2cc3cc(C(F)(F)P(=O)(O)O)ccc3s2)C(=O)N2[C@H](CC[C@H]2C(=O)N2CC(c3cccnc3)C2)C1 [Compound 226, ((2-(((5S,8S,10aR)-2-ethyl-6-oxo-8-(3-(pyridin-3-yl)azetidine-1-carbonyl)decahydropyrrolo[1,2-a][1,4]diazocin-5-yl)carbamoyl)benzo[b]thiophen-5-yl)difluoromethyl)phosphonic acid]	≥ 7.00	5.52 to 6.52
CNC(=O)C[C@@H](Cc1ccc(OC)cc1)NC(=O)[C@@H]1CC[C@@H]2CCN(C(=O)c3n[nH]c4ccc(C)cc34)C[C@H](NC(=O)c3ccc4ccc(C(F)(F)P(=O)(O)O)cc4c3)C(=O)N21 [Compound 229, (difluoro(7-(((5S,8S,10aR)-8-(((R)-1-(4-methoxyphenyl)-4-(methylamino)-4-oxobutan-2-yl)carbamoyl)-3-(5-methyl-1H-indazole-3-carbonyl)-6-oxodecahydropyrrolo[1,2-a][1,5]diazocin-5-yl)carbamoyl)naphthalen-2-yl)methyl)phosphonic acid]	5.00 to 6.00	≥ 6.52
O=C(N[C@H]1CCN(CC(F)F)C[C@H]2CC[C@@H](C(=O)N3CC(c4cc[nH]c(=O)c4)CC34CC4)N2C1=O)c1ccc2ccc(C(F)(F)P(=O)(O)O)cc2c1 (stereo partly drawn) [Compound 234, ((7-(((5S,8S,10aR)-2-(2,2-difluoroethyl)-6-oxo-8-(6-(2-oxo-1,2-dihydropyridin-4-yl)-4-azaspiro[2.4]heptane-4-carbonyl)decahydropyrrolo[1,2-a][1,4]diazocin-5-yl)carbamoyl)naphthalen-2-yl)difluoromethyl)phosphonic acid]	< 5.00	≥ 6.52
O=C(N[C@H]1CN(Cc2ccn3ccnc3c2)CC[C@H]2CC[C@@H](C(=O)N3CC(c4cccnc4)C3)N2C1=O)c1cc2cc(CP(=O)(O)O)ccc2s1 [Compound 235, ((2-(((5S,8S,10aR)-3-(imidazo[1,2-a]pyridin-7-ylmethyl)-6-oxo-8-(3-(pyridin-3-yl)azetidine-1-carbonyl)decahydropyrrolo[1,2-a][1,5]diazocin-5-yl)carbamoyl)benzo[b]thiophen-5-yl)methyl)phosphonic acid]	≥ 7.00	< 4.52
CNC(=O)[C@@H]1CC[C@@H]2CCN(C(=O)c3n[nH]c4ccc(C)cc34)C[C@H](NC(=O)c3ccc4ccc(C(F)(F)P(=O)(O)O)cc4c3)C(=O)N21 [Compound 237, (difluoro(7-(((5S,8S,10aR)-3-(5-methyl-1H-indazole-3-carbonyl)-8-(methylcarbamoyl)-6-oxodecahydropyrrolo[1,2-a][1,5]diazocin-5-yl)carbamoyl)naphthalen-2-yl)methyl)phosphonic acid]	6.00 to 7.00	≥ 6.52
O=C(N[C@H]1CN(C(=O)NCc2ccccc2)CC[C@H]2CC[C@@H](C(=O)Nc3ccc(-c4ccccc4)cc3)N2C1=O)c1cc2cc(C(F)(F)P(=O)(O)O)ccc2s1 [Compound 251, ((2-(((5S,8S,10aR)-8-([1,1′-biphenyl]-4-ylcarbamoyl)-3-(benzylcarbamoyl)-6-oxodecahydropyrrolo[1,2-a][1,5]diazocin-5-yl)carbamoyl)benzo[b]thiophen-5-yl)difluoromethyl)phosphonic acid]	6.00 to 7.00	5.52 to 6.52
C[C@@H](C(=O)N1CC[C@H]2CC[C@@H](C(=O)Nc3ccc(-c4ccccc4)cc3)N2C(=O)[C@@H](NC(=O)c2cc3cc(C(F)(F)P(=O)(O)O)ccc3[nH]2)C1)c1ccccc1 [Compound 254, ((2-(((5S,8S,10aR)-8-([1,1′-biphenyl]-4-ylcarbamoyl)-6-oxo-3-((R)-2-phenylpropanoyl)decahydropyrrolo[1,2-a][1,5]diazocin-5-yl)carbamoyl)-1H-indol-5-yl)difluoromethyl)phosphonic acid]	5.00 to 6.00	5.52 to 6.52
C[C@H](C(=O)N1CC[C@H]2CC[C@@H](C(=O)Nc3ccc(-c4ccccc4)cc3)N2C(=O)[C@@H](NC(=O)c2cc3cc(C(F)(F)P(=O)(O)O)ccc3[nH]2)C1)c1ccccc1 [Compound 255, ((2-(((5S,8S,10aR)-8-([1,1′-biphenyl]-4-ylcarbamoyl)-6-oxo-3-((S)-2-phenylpropanoyl)decahydropyrrolo[1,2-a][1,5]diazocin-5-yl)carbamoyl)-1H-indol-5-yl)difluoromethyl)phosphonic acid]	6.00 to 7.00	5.52 to 6.52
O=C(N[C@H]1CNCC[C@H]2CC[C@@H](C(=O)N3CC(C(=O)N4CCOCC4)C3)N2C1=O)c1cc2cc(C(F)(F)P(=O)(O)O)ccc2s1 [Compound 256, (difluoro(2-(((5S,8S,10aR)-8-(3-(morpholine-4-carbonyl)azetidine-1-carbonyl)-6-oxodecahydropyrrolo[1,2-a][1,5]diazocin-5-yl)carbamoyl)benzo[b]thiophen-5-yl)methyl)phosphonic acid]	6.00 to 7.00	4.52 to 5.52
CC(C)CN1CC[C@H]2CC[C@@H](C(=O)N3CC(C(=O)N4CCOCC4)C3)N2C(=O)[C@@H](NC(=O)c2cc3cc(C(F)(F)P(=O)(O)O)ccc3s2)C1 [Compound 257, (difluoro(2-(((5S,8S,10aR)-3-isobutyl-8-(3-(morpholine-4-carbonyl)azetidine-1-carbonyl)-6-oxodecahydropyrrolo[1,2-a][1,5]diazocin-5-yl)carbamoyl)benzo[b]thiophen-5-yl)methyl)phosphonic acid]	6.00 to 7.00	4.52 to 5.52

The next lines start with the values.

pIC50 [1]	pIC50 [2]	SMILES
< 5.00	4.52 to 5.52	Cc1ccc2[nH]nc(C(=O)N3CC[C@H]4CC[C@@H](C(=O)N(C)C)N4C(=O)[C@@H](NC(=O)c4cc5cc(CP(=O)(O)O)ccc5s4)C3)c2c1 [Compound 230, ((2-(((5S,8S,10aR)-8-(dimethylcarbamoyl)-3-(5-methyl-1H-indazole-3-carbonyl)-6-oxodecahydropyrrolo[1,2-a][1,5]diazocin-5-yl)carbamoyl)benzo[b]thiophen-5-yl)methyl)phosphonic acid]
5.00 to 6.00	≥ 6.52	Cc1ccc2[nH]nc(C(=O)N3CC[C@H]4CC[C@@H](C(=O)N(C)C)N4C(=O)[C@@H](NC(=O)c4cc5cc(C(F)(F)P(=O)(O)O)ccc5s4)C3)c2c1 [Compound 231, ((2-(((5S,8S,10aR)-8-(dimethylcarbamoyl)-3-(5-methyl-1H-indazole-3-carbonyl)-6-oxodecahydropyrrolo[1,2-a][1,5]diazocin-5-yl)carbamoyl)benzo[b]thiophen-5-yl)difluoromethyl)phosphonic acid]
5.00 to 6.00	5.52 to 6.52	CN(C(=O)[C@@H]1CC[C@@H]2CCN(CC(F)F)C[C@H](NC(=O)c3ccc4ccc(C(F)(F)P(=O)(O)O)cc4c3)C(=O)N21)C1CCN(S(C)(=O)=O)CC1 [Compound 244, ((7-(((5S,8S,10aR)-3-(2,2-difluoroethyl)-8-(methyl(1-(methylsulfonyl)piperidin-4-yl)carbamoyl)-6-oxodecahydropyrrolo[1,2-a][1,5]diazocin-5-yl)carbamoyl)naphthalen-2-yl)difluoromethyl)phosphonic acid]
5.00 to 6.00	5.52 to 6.52	O=C(N[C@H]1CN(C(=O)OCc2ccccc2)CC[C@H]2CC[C@@H](C(=O)Nc3ccc(-c4ccccc4)cc3)N2C1=O)c1cc2cc(C(F)(F)P(=O)(O)O)ccc2s1 [Compound 252, ((2-(((5S,8S,10aR)-8-([1,1′-biphenyl]-4-ylcarbamoyl)-3-((benzyloxy)carbonyl)-6-oxodecahydropyrrolo[1,2-a][1,5]diazocin-5-yl)carbamoyl)benzo[b]thiophen-5-yl)difluoromethyl)phosphonic acid]
5.00 to 6.00	≥ 6.52	CN(C(=O)[C@@H]1CC[C@@H]2CCN(C(=O)CCc3ccccc3)C[C@H](NC(=O)c3cc4cc(C(F)(F)P(=O)(O)O)ccc4[nH]3)C(=O)N21)c1ccccc1 [Compound 253, (difluoro(2-(((5S,8S,10aR)-8-(methyl(phenyl)carbamoyl)-6-oxo-3-(3-phenylpropanoyl)decahydropyrrolo[1,2-a][1,5]diazocin-5-yl)carbamoyl)-1H-indol-5-yl)methyl)phosphonic acid]
5.00 to 6.00	5.52 to 6.52	C[C@@H](Cc1ccccc1)C(=O)N1CC[C@H]2CC[C@@H](C(=O)N3CCCC3)N2C(=O)[C@@H](NC(=O)c2cc3cc(C(F)(F)P(=O)(O)O)ccc3s2)C1 [Compound 258, (difluoro(2-(((5S,8S,10aR)-3-((S)-2-methyl-3-phenylpropanoyl)-6-oxo-8-(pyrrolidine-1-carbonyl)decahydropyrrolo[1,2-a][1,5]diazocin-5-yl)carbamoyl)benzo[b]thiophen-5-yl)methyl)phosphonic acid]
